# Assay results published in publication PMC5590679 (Journal of medicinal chemistry, 2017).
# Test system: Mtb BioA overexpression strain (BioA-OE)
# Experiment: microbe, parasite or virus in culture
# Assay type: cell-based, Mycobacterium tuberculosis
Compound,"MIC (Mycobacterium tuberculosis, read-out: MIC that results in 90% inhibition, BioA-OE) [µM]","MIC50 BioA-OE (MIC that results in 50% inhibition, […]) [µM]"
"CC(=O)c1ccc(N2CCN(C(=O)c3ccc4c(c3)OCO4)CC2)cc1 [Compound 6, 1-(4-(4-(Benzo[d][1,3]dioxole-5-carbonyl)piperazin-1-yl)phenyl)-ethanone]",> 50,
(3-Chlorophenyl)(4-(5-methoxypyridin-2-yl)piperazin-1-yl)-methanone [Compound 22],,>50
